The values below come from US20180353501A1 (Arvinas, Inc., priority 2017, published 2018).

The term Dmax denotes the greatest extent of degradation seen.

Where two headings read alike, the source gives them in different places. Bounds are passed on as bounds.

The target of one test is T1, p38δ (Homo sapiens, UniProt O15264).
T1 construct: endogenous in cells; host or cells: MDA-MB-231 (intact cells for degradation; cleared cell lysate for CETSA)
T1 sequence (O15264 1-365): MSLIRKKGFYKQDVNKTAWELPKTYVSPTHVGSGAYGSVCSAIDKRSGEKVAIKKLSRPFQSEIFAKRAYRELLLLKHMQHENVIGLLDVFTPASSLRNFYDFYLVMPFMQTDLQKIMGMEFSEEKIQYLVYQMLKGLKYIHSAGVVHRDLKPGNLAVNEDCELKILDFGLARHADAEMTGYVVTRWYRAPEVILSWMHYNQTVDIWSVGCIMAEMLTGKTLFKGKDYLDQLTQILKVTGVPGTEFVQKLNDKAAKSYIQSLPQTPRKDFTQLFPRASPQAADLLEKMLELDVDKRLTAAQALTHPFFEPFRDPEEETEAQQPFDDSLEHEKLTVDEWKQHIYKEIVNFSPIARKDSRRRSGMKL
The test is described as follows: Western blot survey of p38 isoform degradation in MDA-MB-231 cells (incl. proteasome rescue, CHX chase, washout). The format is cell-based. The protocol: (§1) FIGS. 11A and 11B. Survey of p38 isoform degradation with foretinib-based VHL PROTACs (related to FIGS. 9A-9C and Table 13). (A) Western blots of amide series PROTACs tested in increasing concentrations (0.025, 0.100, 0.250, 1.0, 5.0 μM) on MDA-MB-231 cells, in duplicate. (B) Same as in (A) but with the phenyl series PROTACs. Summary table of the DC50 (concentration at which half-maximal degradation is achieved) and Dmax (maximum percentage of degradation achieved) is reported, per exemplary PROTAC, in Table 13.
(§2) FIGS. 13A, 13B, 13C, and 13D. Exemplary compounds 50 and 46 degrade p38 isoforms in a manner that is rapid, sustained, and proteasome-dependent. (A) MDA-MB-231 cells were either pre-treated or not with the proteasome inhibitor epoxomicin (1 μM) or the neddylation inhibitor MLN4924 (1 μM) for 30 minutes and subsequently treated with either vehicle (DMSO), exemplary compound 50 (250 nM), or exemplary compound 46 (250 nM) for 6 hours. (B) Quantitative real-time PCR was performed after 24 hours of treatment with either vehicle (DMSO), exemplary compound 50 (250 nM), or exemplary compound 46 (250 nM) in MDAMB-231 cells. The dotted line represents DMSO-treated conditions standardized to a value of 1.0 and mRNA abundance (per treatment group) is represented as a foldchange relative to that value. Data is based on biological duplicates and is normalized to beta-tubulin. (C) Cycloheximide (CHX) chase assay. MDA-MB-231 cells were pre-treated with 100 μg/mL CHX for 1 hour prior to treating for the indicated times with either vehicle (DMSO), exemplary compound 50 (250 nM), or exemplary compound 46 (250 nM). Tubulin-normalized p38α and p38δ abundance values are reported beneath individual lanes. (D) MDA-MB231 cells were treated with either vehicle (DMSO), exemplary compound 50 (250 nM), or exemplary compound 46 (250 nM) for 24 hours before re-plating onto new plastic in fresh medium for an additional 24, 48, or 72 hours (“washout” conditions).
(§3) Cell culture. MDA-MB-231 and HeLa cells were obtained from the American Type Culture Collection (ATCC), cultured in RPMI-1640 (1×) and DMEM (1×) medium, respectively, containing 10% fetal bovine serum (FBS) and 1% penicillin-streptomycin and grown in a humidified incubator at 37° C. and 5% CO2.
(§4) Lysates from MDA-MB-231 cells were washed once with ice cold PBS (1×), followed by lysis in buffer containing 25 mM Tris [pH 7.5], 0.25% sodium deoxycholate, 1% Triton X-100, supplemented with 1× protease inhibitor cocktail (Roche) and phosphatase inhibitors (10 mM NaF, 1 mM Na3VO4, and 20 mM β-glycerophosphate), unless otherwise noted. Lysates were spun at 14,000×g for 10 minutes at 4° C. and supernatant was evaluated for protein content using a Pierce BCA Protein Assay (Thermo Fisher Scientific). 25 to 50 μg of protein was loaded onto 10% SDS-PAGE gels or 4-20% Criterion TGX precast gradient gels (Bio-Rad), transferred to nitrocellulose membranes, and probed with the specified antibodies overnight at 4° C. in 1×TBS-Tween (Tris buffered saline plus 0.02% Tween 20) containing 5% non-fat milk. Immunoblots were visualized using a Bio-Rad ChemiDoc imaging instrument and subsequently processed and quantified using the accompanying Bio-Rad ImageLab software.
(§5) MDA-MB-231 cells were plated at 3×10^5 cells per well in a 6-well dish, allowed to adhere overnight, and switched to serum-free RPMI-1640 (1×) media for 16 hours. Cells were then pre-treated with cycloheximide (Sigma) at 100 μg mL^−1 for 1 hour prior to adding either vehicle (DMSO) or PROTAC (250 nM). At the indicated timepoints, cells were immediately placed on ice, rinsed with 1×PBS, lysed, and boiled.
(§6) MDA-MB-231 cells were plated at 1.5×10^5 cells per well in a 6-well dish and allowed to adhere overnight. On the following day, all cells were treated with either vehicle (DMSO) or PROTAC (250 nM). […]
Background: Immunoblotting shows a protein as a band on a membrane.

A further test has as its target T2, p38α (Homo sapiens, UniProt Q16539).
T2 construct: selectively degrades p38α, whereas exemplary PROTAC 46 (10-atom linker, phenyl attachment) selectively degrades p38δ in MDA-MB-231 cells; endogenous in cells; host or cells: MDA-MB-231
Described as above. The format is cell-based. Particulars: for Dmax: read-out: p38α Dmax (maximum percentage of degradation achieved). Here is the method:
as §1, §2, §3, §4, §5, §6

Where [1] appears, read: 250 nM 24 hours, then re-plated without compound.
The mark [2] stands for this setting: 250 nM PROTAC 6 hours, pre-treated 1 μM epoxomicin or 1 μM MLN4924.
[3] abbreviates: MDA-MB-231 cells, western blot, read-out: p38α DC50 (concentration at which half-maximal degradation is achieved).

T2 sequence (Q16539 whole entry): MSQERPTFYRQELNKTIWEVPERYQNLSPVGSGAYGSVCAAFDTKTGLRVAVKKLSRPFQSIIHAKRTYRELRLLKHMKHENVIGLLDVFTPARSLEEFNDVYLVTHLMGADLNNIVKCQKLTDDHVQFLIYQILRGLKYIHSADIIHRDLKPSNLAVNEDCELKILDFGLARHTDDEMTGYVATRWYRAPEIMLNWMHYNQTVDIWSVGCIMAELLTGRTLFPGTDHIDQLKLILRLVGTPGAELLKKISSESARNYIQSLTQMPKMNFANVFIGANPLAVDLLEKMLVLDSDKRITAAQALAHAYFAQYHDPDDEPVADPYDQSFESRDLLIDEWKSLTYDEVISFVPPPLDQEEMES

On to `COc1cc2c(Oc3ccc(NC(=O)C4(C(=O)Nc5ccc(F)cc5)CC4)cc3F)ccnc2cc1OCCOCCOCCOc1cc(-c2scnc2C)ccc1CNC(=O)[C@@H]1C[C@@H](O)CN1C(=O)[C@H](C(C)C)N1Cc2ccccc2C1=O` [compound 46], for which the “p38δ degradation efficacy maintained post-washout” value on p38δ (setting [1]) is 24 h. For the same compound, the “rescue of p38δ downregulation by proteasome / neddylation inhibitor” value on p38δ (setting [2]) is reported as “completely rescued”. Moreover, on p38δ (MDA-MB-231 cells, western blot), the DC50 worked out at 79.2 ± 28 nM, the Dmax was 98.4% and the “p38δ Dmax” value is “Dmax = 98.4%”. The DC50 on p38α (MDA-MB-231 cells, western blot, read-out: p38α DC50) was more than 5000 nM. Also, at p38α (MDA-MB-231 cells, western blot), the Dmax was determined as 35%.

Take `COc1cc2c(Oc3ccc(NC(=O)C4(C(=O)Nc5ccc(F)cc5)CC4)cc3F)ccnc2cc1OCCCCOCCCCOCC(=O)N[C@H](C(=O)N1C[C@H](O)C[C@H]1C(=O)NCc1ccc(-c2scnc2C)cc1)C(C)(C)C` [compound 50, N-(3-fluoro-4-((7-(4-(4-(2-(((S)-1-((2S,4R)-4-hydroxy-2-((4-(4-methylthiazol-5-yl)benzyl)carbamoyl)pyrrolidin-1-yl)-3,3-dimethyl-1-oxobutan-2-yl)amino)-2-oxoethoxy)butoxy)buto-xy)-6-methoxyquinolin-4-yl)oxy)phenyl)-N-(4-fluorophenyl)cyclopropane-1,1-dicarboxa-mide]: on p38δ (MDA-MB-231 cells, western blot), the DC50 was more than 5000 nM and the maximal degradation (Dmax) was 18.5%. At p38α (setting [1]), the “p38α degradation efficacy maintained post-washout” value came out at 72 h. Further, the “rescue of p38α downregulation by proteasome / neddylation inhibitor” value at p38α (setting [2]) is reported as “completely rescued”. At p38α (MDA-MB-231 cells, western blot), the “p38α Dmax (maximum percentage of degradation achieved)” value is given as “Dmax = 99.6%” and the greatest degradation seen (Dmax) came out at 99.6%. Besides, on p38α (setting [3]), the DC50 worked out at 9.5 ± 1 nM.

As to `COc1cc2c(Oc3ccc(NC(=O)C4(C(=O)Nc5ccc(F)cc5)CC4)cc3F)ccnc2cc1OCCCOCCCOCCC(=O)N[C@H](C(=O)N1C[C@H](O)C[C@H]1C(=O)NCc1ccc(-c2scnc2C)cc1)C(C)(C)C` [Example 1], the DC50 on p38δ (MDA-MB-231 cells, western blot) is more than 5000 nM; at p38α (setting [3]), 230 nM. Also, the maximal degradation (Dmax) at p38δ (MDA-MB-231 cells, western blot) turned out to be 42%; at p38α (MDA-MB-231 cells, western blot), 83%.
